Measurements as given in article PMC9033141, “Beta and Gamma Amino Acid-Substituted Benzenesulfonamides as Inhibitors of Human Carbonic Anhydrases” (Pharmaceuticals, 2022).
Read-outs that look alike come from different tables or passages of the source.

Key:
CAII = biological target: T1, CAII (Homo sapiens, UniProt P00918); assay: biochemical; assay type: binding; conditions: FTSA, pH 7.0, 37 °C; read-out: Observed Dissociation Constant (Kd_obs), CAII;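 also: recombinant human CAII, thermal shift with ANS dye fluorescence, Kd_obs from fitting melting temperature versus ligand concentration, intrinsic values corrected for deprotonated sulfonamide and Zn-bound water fractions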
T1 construct: made in house; host or cells: E. coli
Method: (§1) Human CA isozymes were expressed in E. coli (CAI, II, III, IV, VA, VB, VII, XII, XIII, XIV) or mammalian cells (CAVI and CAIX), chromatographically purified following the published protocols [47], and stored at −80 °C. The protein concentration was determined by UV absorption at 280 nm using Beer–Lambert law.
(§2) The QIAGEN Rotor-Gene Q was used to carry out the experiments, with a blue channel used for excitation (365 nm) and detection (460 nm). FTSA in this case relies on an extrinsic probe, 8-anilino-1-naphthalenesulfonate (ANS), to detect the fluorescence increase during protein denaturation, from which protein melting temperature (Tm) can be determined. […] The observed affinity of ligands for CAs was determined by plotting the Tm as a function of ligand concentration and then fitting a curve as described previously [48]. […] Samples were heated from 25 °C to 99 °C at the speed of 1 °C/min.
(§3) The intrinsic thermodynamic parameters were calculated as described in [40]. The intrinsic reaction of inhibitor binding to CA is shown in Equation (1).
(§4) When calculating Kd_int values, these protein and ligand fractions from Equation (1) have to be accounted for (Equations (2) and (3)). The intrinsic dissociation constant is calculated by multiplying Kd_obs value by the corresponding fractions of protein and ligand (Equation (4)). (2) fRSO2NH^−=10^pH−pKa_RSO2NH2/1+10^pH−pKa_RSO2NH2 (3) fCAZnH2O=1−10^pH−pKa_CAZnH2O/1+10^pH−pKa_CAZnH2O (4) Kd_int=Kd_obs×fRSO2NH^−×fCAZnH2O (5) ΔGint0=RTlnKd_int
(§5) The intrinsic standard Gibbs energy changes upon binding were calculated using Equation (5). Here, R—universal ideal gas constant (8.3144 J/mol·K), T—absolute temperature (310.15 K).

CAI = biological target: T2, CAI (Homo sapiens, UniProt P00915); assay: biochemical; assay type: binding; conditions: FTSA, pH 7.0, 37 °C; read-out: Observed Dissociation Constant (Kd_obs), CAI
T2 construct: made in house; host or cells: E. coli
Method: as §1, §2, §3, §4, §5

CAIX = biological target: T3, CAIX (Homo sapiens, UniProt Q16790); assay: biochemical; assay type: binding; conditions: FTSA, pH 7.0, 37 °C
T3 construct: made in house
Method: as §1, §2, §3, §4, §5

CAXIII = CAXIII (Homo sapiens, UniProt Q8N1Q1); assay: biochemical; conditions: Observed Dissociation Constant (Kd_obs), FTSA, pH 7.0, 37 °C;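 also: recombinant human CAXIII melting temperature tracked by ANS fluorescence in thermal shift assay, Tm fitted against ligand concentration, intrinsic value corrects Kd for deprotonated sulfonamide and Zn-bound water fractions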
Method: as §1, §2, §3, §4, §5

CAXII = biological target: T4, CAXII (Homo sapiens, UniProt O43570); assay: biochemical; assay type: binding; conditions: FTSA, pH 7.0, 37 °C; read-out: Observed Dissociation Constant (Kd_obs), CAXII
T4 construct: made in house; host or cells: E. coli

[1] = read-out: Observed Dissociation Constant (Kd_obs), CAIX
[2] = Observed Dissociation Constant (Kd_obs), CAIX
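For Observed Dissociation Constant (Kd obs), CAXII in this document: recombinant CAXII made in E. coli, ANS-fluorescence thermal shift with affinity fitted from Tm versus ligand concentration, intrinsic energy from Kd_obs corrected for deprotonated sulfonamide and Zn-water fractions.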

Chain of CAXIII (Q8N1Q1 whole entry): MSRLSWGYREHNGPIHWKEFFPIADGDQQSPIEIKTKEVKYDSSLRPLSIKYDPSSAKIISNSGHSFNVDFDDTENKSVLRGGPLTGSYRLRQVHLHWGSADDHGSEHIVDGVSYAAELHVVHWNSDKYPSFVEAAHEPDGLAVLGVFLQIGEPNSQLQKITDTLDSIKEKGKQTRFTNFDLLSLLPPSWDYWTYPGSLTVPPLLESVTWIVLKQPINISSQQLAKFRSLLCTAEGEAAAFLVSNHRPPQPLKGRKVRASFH
T2 sequence (P00915 whole entry): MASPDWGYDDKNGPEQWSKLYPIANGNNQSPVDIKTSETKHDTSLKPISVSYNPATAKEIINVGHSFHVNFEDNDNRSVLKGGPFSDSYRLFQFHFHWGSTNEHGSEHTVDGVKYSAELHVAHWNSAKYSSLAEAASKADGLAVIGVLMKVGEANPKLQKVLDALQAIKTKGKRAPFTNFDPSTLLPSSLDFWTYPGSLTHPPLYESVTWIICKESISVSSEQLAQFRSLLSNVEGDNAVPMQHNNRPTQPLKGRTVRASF
T4 sequence (O43570 25-354): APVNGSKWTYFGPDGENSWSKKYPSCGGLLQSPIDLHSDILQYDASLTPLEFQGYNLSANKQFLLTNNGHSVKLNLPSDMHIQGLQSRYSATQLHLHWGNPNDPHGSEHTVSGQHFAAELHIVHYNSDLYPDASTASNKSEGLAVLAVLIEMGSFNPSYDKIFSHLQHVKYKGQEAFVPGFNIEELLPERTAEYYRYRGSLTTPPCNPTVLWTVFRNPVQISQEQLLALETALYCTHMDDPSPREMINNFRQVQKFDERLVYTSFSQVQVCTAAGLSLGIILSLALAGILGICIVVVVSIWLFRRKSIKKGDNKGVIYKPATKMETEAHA

Row | Structure (SMILES) | Kd (CAII) | Kd (CAI) | melting point | Kd (CAIX; [1]) | Kd (CAXIII) | Kd (CAXII) | Kd (CAIX; [2])
1 | NS(=O)(=O)c1ccc(NCC(CC(=O)NN=Cc2cccc(Cl)c2)C(=O)NN=Cc2cccc(Cl)c2)cc1 (stereo not drawn) [Compound 11a, 4-((2-(2-(3-Chlorobenzylidene)hydrazine-1-carbonyl)-4-(2-(3-chlorobenzylidene)hydrazineyl)-4-oxobutyl)amino)benzenesulfonamide] | 3.3 µM | 20 µM | 190 to 191 °C | 1 µM | 5 µM | 100 µM | 
2 | NS(=O)(=O)c1ccc(NCC(CC(=O)NN=Cc2cccc(Cl)c2)C(=O)NN=Cc2cccc(Cl)c2)c(Cl)c1 (stereo not drawn) [Compound 11b, 3-Chloro-4-((2-(2-(3-chlorobenzylidene)hydrazine-1-carbonyl)-4-(2-(3-chlorobenzylidene)hydrazineyl)-4-oxobutyl)amino)benzenesulfonamide] | 0.33 µM | 2.5 µM | 175 to 176 °C | 0.13 µM | 0.33 µM | 33 µM | 
3 | NS(=O)(=O)c1ccc(NCC(CC(=O)NN=Cc2ccc(Cl)cc2)C(=O)NN=Cc2ccc(Cl)cc2)cc1 (stereo not drawn) [Compound 12a, 4-((2-(2-(4-Chlorobenzylidene)hydrazine-1-carbonyl)-4-(2-(4-chlorobenzylidene)hydrazineyl)-4-oxobutyl)amino)benzenesulfonamide] | 5 µM | 36 µM | 179 to 180 °C | 1 µM | 17 µM | 66 µM | 
4 | NS(=O)(=O)c1ccc(NCC(CC(=O)NN=Cc2ccc(Cl)cc2)C(=O)NN=Cc2ccc(Cl)cc2)c(Cl)c1 (stereo not drawn) [Compound 12b, 3-Chloro-4-((2-(2-(4-chlorobenzylidene)hydrazine-1-carbonyl)-4-(2-(4-chlorobenzylidene)hydrazineyl)-4-oxobutyl)amino)benzenesulfonamide] | 1.1 µM | 6.7 µM | 211 to 212 °C | 0.67 µM | 1.5 µM | 57 µM | 
5 | NS(=O)(=O)c1ccc(NCC(CC(=O)NN=Cc2ccc(F)cc2)C(=O)NN=Cc2ccc(F)cc2)cc1 (stereo not drawn) [Compound 13a, 4-((2-(2-(4-Fluorobenzylidene)hydrazine-1-carbonyl)-4-(2-(4-fluorobenzylidene)hydrazineyl)-4-oxobutyl)amino)benzenesulfonamide] | 2.9 µM | 22 µM | 153 to 154 °C | 1.4 µM | 20 µM | 23 µM | 
6 | NS(=O)(=O)c1ccc(NCC(CC(=O)NN=Cc2ccc(F)cc2)C(=O)NN=Cc2ccc(F)cc2)c(Cl)c1 (stereo not drawn) [Compound 13b, 3-Chloro-4-((2-(2-(4-fluorobenzylidene)hydrazine-1-carbonyl)-4-(2-(4-fluorobenzylidene)hydrazineyl)-4-oxobutyl)amino)benzenesulfonamide] | 0.39 µM | 2.6 µM | 207 to 208 °C |  | 0.34 µM | 23 µM | 0.33 µM
7 | COc1ccc(C=NNC(=O)CC(CNc2ccc(S(N)(=O)=O)cc2)C(=O)NN=Cc2ccc(OC)cc2)cc1 (stereo not drawn) [Compound 14a, 4-((2-(2-(4-Methoxybenzylidene)hydrazine-1-carbonyl)-4-(2-(4-methoxybenzylidene)hydrazineyl)-4-oxobutyl)amino)benzenesulfonamide] | 3.4 µM | 32 µM | 168 to 169 °C | 1.4 µM | 23 µM | 38 µM | 
8 | COc1ccc(C=NNC(=O)CC(CNc2ccc(S(N)(=O)=O)cc2Cl)C(=O)NN=Cc2ccc(OC)cc2)cc1 (stereo not drawn) [Compound 14b, 3-Chloro-4-((2-(2-(4-methoxybenzylidene)hydrazine-1-carbonyl)-4-(2-(4-methoxybenzylidene)hydrazineyl)-4-oxobutyl)amino)benzenesulfonamide] | 0.059 µM | 0.51 µM | 198 to 199 °C | 0.29 µM | 0.066 µM | 10 µM | 
9 | NS(=O)(=O)c1ccc(NCC(CC(=O)NN=Cc2ccccc2[N+](=O)[O-])C(=O)NN=Cc2ccccc2[N+](=O)[O-])cc1 (stereo not drawn) [Compound 15a, 4-((2-(2-(2-Nitrobenzylidene)hydrazine-1-carbonyl)-4-(2-(2-nitrobenzylidene)hydrazineyl)-4-oxobutyl)amino)benzenesulfonamide] | 3.3 µM | 13 µM | 197 to 198 °C | 1 µM | 6.7 µM | 50 µM | 
10 | NS(=O)(=O)c1ccc(NCC(CC(=O)NN=Cc2ccccc2[N+](=O)[O-])C(=O)NN=Cc2ccccc2[N+](=O)[O-])c(Cl)c1 (stereo not drawn) [Compound 15b, 3-Chloro-4-((2-(2-(2-nitrobenzylidene)hydrazine-1-carbonyl)-4-(2-(2-nitrobenzylidene)hydrazineyl)-4-oxobutyl)amino)benzenesulfonamide] | 0.5 µM | 2.5 µM | 178 to 179 °C | 0.14 µM | 0.4 µM | 50 µM | 
11 | NS(=O)(=O)c1ccc(NCC(CC(=O)NN=Cc2cccc([N+](=O)[O-])c2)C(=O)NN=Cc2cccc([N+](=O)[O-])c2)cc1 (stereo not drawn) [Compound 16a, 4-((2-(2-(3-Nitrobenzylidene)hydrazine-1-carbonyl)-4-(2-(3-nitrobenzylidene)hydrazineyl)-4-oxobutyl)amino)benzenesulfonamide] | 4 µM | 20 µM | 218 to 219 °C | 1.4 µM | 14 µM | 50 µM | 
12 | NS(=O)(=O)c1ccc(NCC(CC(=O)NN=Cc2cccc([N+](=O)[O-])c2)C(=O)NN=Cc2cccc([N+](=O)[O-])c2)c(Cl)c1 (stereo not drawn) [Compound 16b, 3-Chloro-4-((2-(2-(3-nitrobenzylidene)hydrazine-1-carbonyl)-4-(2-(3-nitrobenzylidene)hydrazineyl)-4-oxobutyl)amino)benzenesulfonamide] | 0.5 µM | 3.3 µM | 199 to 200 °C | 0.13 µM | 1 µM | 130 µM | 
13 | NS(=O)(=O)c1ccc(NCC(CC(=O)NN=Cc2ccc([N+](=O)[O-])cc2)C(=O)NN=Cc2ccc([N+](=O)[O-])cc2)cc1 (stereo not drawn) [Compound 17a, 4-((2-(2-(4-Nitrobenzylidene)hydrazine-1-carbonyl)-4-(2-(4-nitrobenzylidene)hydrazineyl)-4-oxobutyl)amino)benzenesulfonamide] | 5.4 µM | 36 µM | 256 to 257 °C | 3.3 µM | 19 µM | 79 µM | 
14 | NS(=O)(=O)c1ccc(NCC(CC(=O)NN=Cc2ccc([N+](=O)[O-])cc2)C(=O)NN=Cc2ccc([N+](=O)[O-])cc2)c(Cl)c1 (stereo not drawn) [Compound 17b, 3-Chloro-4-((2-(2-(4-nitrobenzylidene)hydrazine-1-carbonyl)-4-(2-(4-nitrobenzylidene)hydrazineyl)-4-oxobutyl)amino)benzenesulfonamide] | 0.57 µM | 2.6 µM | 220 to 221 °C |  | 1.4 µM | 58 µM | 1.4 µM
15 | Cc1ccc(C)n1NC(=O)CC(CNc1ccc(S(N)(=O)=O)cc1)C(=O)Nn1c(C)ccc1C (stereo not drawn) [Compound 19a, N^1,N^4-bis(2,5-Dimethyl-1H-pyrrol-1-yl)-2-(((4-sulfamoylphenyl)amino)methyl)succinamide] | 1.7 µM | 10 µM | 195 to 196 °C | 0.56 µM | 4 µM | 10 µM | 
16 | NS(=O)(=O)c1ccc(NCC(CC(=O)NNC(=S)Nc2ccccc2)C(=O)NNC(=S)Nc2ccccc2)cc1 (stereo not drawn) [Compound 23a, 2,2′-(2-(((4-Sulfamoylphenyl)amino)methyl)succinyl)bis(N-phenylhydrazine-1-carbothioamide)] | 2 µM | 4 µM | 136 to 137 °C | 0.13 µM | 10 µM | 2.2 µM | 
17 | Cn1c(CC(CNc2ccc(S(N)(=O)=O)cc2)c2n[nH]c(=S)n2C)n[nH]c1=S (stereo not drawn) [Compound 24a, 4-((2,3-bis(4-Methyl-5-thioxo-4,5-dihydro-1H-1,2,4-triazol-3-yl)propyl)amino)benzenesulfonamide] | 6.7 µM | 43 µM | 170 to 171 °C | 0.91 µM | 19 µM | 3.3 µM | 
18 | Cn1c(CC(CNc2ccc(S(N)(=O)=O)cc2Cl)c2n[nH]c(=S)n2C)n[nH]c1=S (stereo not drawn) [Compound 24b, 4-((2,3-bis(4-Methyl-5-thioxo-4,5-dihydro-1H-1,2,4-triazol-3-yl)propyl)amino)-3-chlorobenzenesulfonamide] | 0.25 µM | 2.9 µM | 151 to 152 °C | 0.059 µM | 1.3 µM | 1.7 µM | 
19 | NS(=O)(=O)c1ccc(NCC(Cc2n[nH]c(=S)n2-c2ccccc2)c2n[nH]c(=S)n2-c2ccccc2)cc1 (stereo not drawn) [Compound 25a, 4-((2,3-bis(4-Phenyl-5-thioxo-4,5-dihydro-1H-1,2,4-triazol-3-yl)propyl)amino)benzenesulfonamide] | 3.3 µM | 100 µM | 258 to 259 °C | 0.1 µM | 25 µM | 4 µM | 
